Results taken from ChEMBL document CHEMBL1201862, “PubChem BioAssay data set” (2004).
“And” between values parts separate entries of the source, which are not always exact repeats. Equal entries are not always repeated.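 Step 1: Grow cells in 96-well plates. Step 2: Expose to compound for 48 hours at 5 concentrations. Step 3: Interpolate endpoints linearly; if unreached, use highest concentration. GI50: concentration for 50% inhibition of growth.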 The source made the active and inactive calls. Cut-off read from the data, not from the text of the source: active = GI50 up to about 1.1 µM and inactive = higher.

Tests used:
Assay in all cases: NCI-60 cell line screen, 48 h
[1] = test system: HCT-15
[2] = test system: MDA-N
[3] = test system: A498
[4] = test system: CAKI-1
[5] = test system: EKVX
[6] = test system: HT-29
[7] = test system: SF-268
[8] = test system: PC-3
[9] = test system: MDA-MB-435
[10] = test system: BT-549
[11] = test system: TK-10
[12] = test system: SK-MEL-28
[13] = test system: OVCAR-5
[14] = test system: SK-MEL-5
[15] = test system: CCRF-CEM
[16] = test system: NCI/ADR-RES
[17] = test system: A549
[18] = test system: OVCAR-3
[19] = test system: NCI-H23
[20] = test system: OVCAR-4
[21] = test system: OVCAR-8
[22] = test system: 786-0
[23] = test system: Malme-3M
[24] = test system: SW-620
[25] = test system: T47D
[26] = test system: HCT-116
[27] = test system: HOP-92
[28] = test system: SNB-75
[29] = test system: MCF7
[30] = test system: SNB-19
[31] = test system: M14
[32] = test system: LOX IMVI
[33] = test system: RXF 393
[34] = test system: NCI-H226
[35] = test system: HCC 2998
[36] = test system: SF-295
[37] = test system: HOP-62
[38] = test system: UACC-257
[39] = test system: COLO 205
[40] = test system: SN12C
[41] = test system: SK-MEL-2
[42] = test system: MDA-MB-231
[43] = test system: U-251
[44] = test system: KM12
[45] = test system: SK-OV-3
[46] = test system: DU-145
[47] = test system: IGROV-1
[48] = test system: UO-31
[49] = test system: ACHN
[50] = test system: NCI-H522
[51] = test system: NCI-H460
[52] = test system: Hs-578T
[53] = test system: RPMI-8226
[54] = test system: SR
[55] = test system: HL-60

C=C(C)[C@@]1(O)CCC[C@H]1NC(=O)OC(C)(C)C
GI50 [1]: > 100 µM
GI50 [2]: > 100 µM (inactive)
GI50 [3]: > 100 µM (inactive)
GI50 [4]: > 100 µM (inactive)
GI50 [5]: > 100 µM (inactive)
GI50 [6]: > 100 µM (inactive)
GI50 [7]: > 100 µM (inactive)
GI50 [8]: > 100 µM (inactive)
GI50 [9]: > 100 µM (inactive)
GI50 [10]: > 100 µM (inactive)
GI50 [11]: > 100 µM (inactive)
GI50 [12]: > 100 µM (inactive)
GI50 [13]: > 100 µM (inactive)
GI50 [14]: > 100 µM (inactive)
GI50 [15]: 84.9 µM (inactive)
GI50 [16]: > 100 µM (inactive)
GI50 [17]: > 100 µM (inactive)
GI50 [18]: > 100 µM (inactive)
GI50 [19]: > 100 µM (inactive)
GI50 [20]: > 100 µM (inactive)
GI50 [21]: > 100 µM (inactive)
GI50 [22]: > 100 µM (inactive)
GI50 [23]: > 100 µM (inactive)
GI50 [24]: > 100 µM (inactive)
GI50 [25]: > 100 µM (inactive)
GI50 [26]: > 100 µM (inactive)
GI50 [27]: > 100 µM (inactive)
GI50 [28]: > 100 µM (inactive)
GI50 [29]: > 100 µM (inactive)
GI50 [30]: > 100 µM (inactive)
GI50 [31]: > 100 µM (inactive)
GI50 [32]: > 100 µM (inactive)
GI50 [33]: > 100 µM (inactive)
GI50 [34]: > 100 µM (inactive)
GI50 [35]: > 100 µM (inactive)
GI50 [36]: > 100 µM (inactive)
GI50 [37]: > 100 µM (inactive)
GI50 [38]: > 100 µM (inactive)
GI50 [39]: > 100 µM (inactive)
GI50 [40]: > 100 µM (inactive)
GI50 [41]: > 100 µM (inactive)
GI50 [42]: > 100 µM (inactive)
GI50 [43]: > 100 µM (inactive)
GI50 [44]: > 100 µM (inactive)
GI50 [45]: > 100 µM (inactive)
GI50 [46]: > 100 µM (inactive)
GI50 [47]: > 100 µM (inactive)
GI50 [48]: > 100 µM (inactive)
GI50 [49]: > 100 µM (inactive)
GI50 [50]: > 100 µM (inactive)
GI50 [51]: > 100 µM (inactive)

N#Cc1c(-c2ccccc2)cc(-c2ccccc2)n(C2OC(CO)C(O)C(O)C2O)c1=S (configuration not stated)
GI50 [2]: 45 µM (inactive) and 23.2 µM (inactive)
GI50 [3]: 19.7 µM (inactive)
GI50 [5]: > 100 µM (inactive)
GI50 [6]: 23.1 µM (inactive) and 34.4 µM (inactive)
GI50 [7]: 34.2 µM (inactive) and 27.4 µM (inactive)
GI50 [8]: 17.1 µM (inactive) and 29.6 µM (inactive)
GI50 [9]: 21 µM (inactive) and 25.4 µM (inactive)
GI50 [10]: 32.1 µM (inactive) and 25.6 µM (inactive)
GI50 [11]: 70.3 µM (inactive)
GI50 [52]: 21.1 µM (inactive) and 31.9 µM (inactive)
GI50 [53]: 29.2 µM (inactive) and 21.9 µM (inactive)
GI50 [14]: 30.4 µM (inactive) and 15.7 µM (inactive)
GI50 [16]: 72.3 µM (inactive)
GI50 [17]: 32.7 µM (inactive) and 46.1 µM (inactive)
GI50 [19]: 23.4 µM (inactive) and 29 µM (inactive)
GI50 [54]: 30.8 µM (inactive) and 30.9 µM (inactive)
GI50 [21]: 39.1 µM (inactive) and 32.7 µM (inactive)
GI50 [22]: 55.5 µM (inactive) and 38.5 µM (inactive)
GI50 [24]: 37.2 µM (inactive) and 23.6 µM (inactive)
GI50 [26]: 37.4 µM (inactive) and 19.7 µM (inactive)
GI50 [28]: 33.2 µM (inactive) and 51.2 µM (inactive)
GI50 [29]: 27.5 µM (inactive) and 43.4 µM (inactive)
GI50 [30]: 38 µM (inactive) and 33 µM (inactive)
GI50 [32]: 15 µM (inactive) and 26.8 µM (inactive)
GI50 [33]: 40.3 µM (inactive)
GI50 [43]: 18.8 µM (inactive)
GI50 [55]: 36.2 µM (inactive) and 38.7 µM (inactive)
GI50 [44]: 53.2 µM (inactive) and 48.2 µM (inactive)
GI50 [47]: 45.5 µM (inactive) and 31 µM (inactive)
GI50 [48]: 41.2 µM (inactive) and 34.3 µM (inactive)
GI50 [51]: 42.1 µM (inactive) and 28.6 µM (inactive)
